Biological target: T1, human GLP-1R receptor (Homo sapiens, UniProt P43220)
T1 construct: expressed in transfected cells
Test: GLP-1R low expression cell assay (cAMP TR-FRET, CHO-K1_hGLP-1Rlow_clone10 cells)
Format: cell-based
Conditions: for EC50: cAMP TR-FRET, 30 min at 25° C.; for Emax: maximum activation relative to control GLP-1 peptide agonist
Summary of the method: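 Readout is cAMP TR-FRET after 30 min compound stimulation at 25 °C of a low-GLP-1R-expressing CHO-K1 clone (1,000 cells/well), with 10-point 3-fold serial dilutions. Percent activation versus a control GLP-1 peptide, from duplicates, was Hill-fitted to give EC50.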

T1 sequence (P43220 24-463): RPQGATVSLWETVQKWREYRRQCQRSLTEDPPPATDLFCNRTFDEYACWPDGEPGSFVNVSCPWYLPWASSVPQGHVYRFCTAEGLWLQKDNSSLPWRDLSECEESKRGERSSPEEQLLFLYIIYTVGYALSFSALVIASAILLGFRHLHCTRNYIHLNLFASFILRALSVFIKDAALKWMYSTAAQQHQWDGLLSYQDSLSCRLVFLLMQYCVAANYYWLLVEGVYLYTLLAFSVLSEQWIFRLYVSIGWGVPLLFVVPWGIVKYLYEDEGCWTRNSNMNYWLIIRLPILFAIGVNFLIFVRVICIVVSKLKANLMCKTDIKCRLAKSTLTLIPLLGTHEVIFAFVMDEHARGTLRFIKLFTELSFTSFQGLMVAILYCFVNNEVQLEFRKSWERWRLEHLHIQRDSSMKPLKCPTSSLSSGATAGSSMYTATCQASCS

Compound | EC50 [nM] | Emax [%]
CN1C(=O)[C@H](c2ccc(Cl)cc2F)Oc2c(C3CCN(Cc4nc5c(OC(F)F)cc(C(=O)O)cc5n4C)CC3)cccc21 [Compound 241, (S)-2-((4-(2-(4-chloro-2-fluorophenyl)-4-methyl-3-oxo-3,4-dihydro-2H-benzo[b][1,4]oxazin-8-yl)piperidin-1-yl)methyl)-4-(difluoromethoxy)-1-methyl-1H-benzo[d]imidazole-6-carboxylic acid] | > 1000 | < 25
Cn1c(CN2CCC(n3nccc3OCc3ccc(Cl)cc3F)CC2)nc2c(OC(F)F)cc(C(=O)O)cc21 [Compound 200, 2-((4-(5-((4-Chloro-2-fluorobenzyl)oxy)-1H-pyrazol-1-yl)piperidin-1-yl)methyl)-4-(difluoromethoxy)-1-methyl-1H-benzo[d]imidazole-6-carboxylic acid] | > 1000 | > 85
Cn1c(CN2CCC(c3cccc(OCc4ccc(C(F)(F)F)cc4)n3)CC2)nc2c(OC(F)F)cc(C(=O)O)cc21 [Compound 203, 4-(difluoromethoxy)-1-methyl-2-((4-(6-((4-(trifluoromethyl)benzyl)oxy)pyridin-2-yl)piperidin-1-yl)methyl)-1H-benzo[d]imidazole-6-carboxylic acid] | 10 to 100 | > 85
O=C(O)c1ccc2nc(CN3CCC(c4cccc(OCc5ccc(Cl)cc5F)n4)CC3)[nH]c2c1O [Compound 204, 2-((4-(6-((4-Chloro-2-fluorobenzyl)oxy)pyridin-2-yl)piperidin-1-yl)methyl)-7-hydroxy-1H-benzo[d]imidazole-6-carboxylic acid] | > 1000 | > 85
Cn1c(CN2CCC(c3cccc(OCc4ccc(Cl)cc4F)n3)CC2)nc2c(NCCF)cc(C(=O)O)cc21 [Compound 186, 2-((4-(6-((4-Chloro-2-fluorobenzyl)oxy)pyridin-2-yl)piperidin-1-yl)methyl)-4-((2-fluoroethyl)amino)-1-methyl-1H-benzo[d]imidazole-6-carboxylic acid] | 100 to 1000 | > 85
COc1c(Cl)ccc(COc2cccc(C3CCN(Cc4nc5c(OC(F)F)cc(C(=O)O)cc5n4C)CC3)n2)c1F [Compound 212, 2-((4-(6-((4-Chloro-2-fluoro-3-methoxybenzyl)oxy)pyridin-2-yl)piperidin-1-yl)methyl)-4-(difluoromethoxy)-1-methyl-1H-benzo[d]imidazole-6-carboxylic acid] | 100 to 1000 | > 85
CN(c1nc2c(OC(F)F)cc(C(=O)O)cc2n1C[C@@H]1CCO1)[C@H]1CC[C@@H](c2cccc(OCc3ccc(C#N)cc3F)n2)CC1 [Compound 131, 2-(((1s,4R)-4-(6-((4-cyano-2-fluorobenzyl)oxy)pyridin-2-yl)cyclohexyl) (methyl)amino)-4-(difluoromethoxy)-1-(((S)-oxetan-2-yl)methyl)-1H-benzo[d]imidazole-6-carboxylic acid] | 100 to 1000 | > 85
Cn1c(N[C@H]2CC[C@H](c3cccc(OCc4ccc(Cl)cc4F)n3)CC2)nc2c(OC(F)F)cc(C(=O)O)cc21 [Compound 371, 2-(((1r,4r)-4-(6-((4-Chloro-2-fluorobenzyl)oxy)pyridin-2-yl)cyclohexyl)amino)-4-(difluoromethoxy)-1-methyl-1H-benzo[d]imidazole-6-carboxylic acid] | > 1000 | > 85
Cn1c(CN2CCC(c3cccc(OCc4c(F)cc(Cl)cc4F)n3)CC2)nc2c(OC(F)F)cc(C(=O)O)cc21 [Compound 153, 2-((4-(6-((4-Chloro-2,6-difluorobenzyl)oxy)pyridin-2-yl)piperidin-1-yl)methyl)-4-(difluoromethoxy)-1-methyl-1H-benzo[d]imidazole-6-carboxylic acid] | 10 to 100 | > 85
N#Cc1ccc(COc2cccc(C3CCN(Cc4nc5cnc(C(=O)O)cc5n4C[C@@H]4CCO4)CC3)n2)c(F)c1 [Compound 378, (S)-2-((4-(6-((4-Cyano-2-fluorobenzyl)oxy)pyridin-2-yl)piperidin-1-yl)methyl)-1-(oxetan-2-ylmethyl)-1H-imidazo[4,5-c]pyridine-6-carboxylic acid] | 10 to 100 | > 85
Cn1c(CN2CCC(c3cccc(OCc4ccc(C#N)cc4F)n3)CC2)nc2c(C(C)(C)O)cc(C(=O)O)cc21 [Compound 126, 2-((4-(6-((4-cyano-2-fluorobenzyl)oxy)pyridin-2-yl)piperidin-1-yl)methyl)-4-(2-hydroxypropan-2-yl)-1-methyl-1H-benzo[d]imidazole-6-carboxylic acid] | > 1000 | 50 to 85
COc1cc(C(=O)O)cc2c1nc(CN1CCC(c3cccc4c3O[C@H](c3ccc(C#N)cc3F)CO4)CC1)n2Cc1cncs1 [Compound 91, (R)-2-((4-(3-(4-cyano-2-fluorophenyl)-2,3-dihydrobenzo[b][1,4]dioxin-5-yl)piperidin-1-yl)methyl)-4-methoxy-1-(thiazol-5-ylmethyl)-1H-benzo[d]imidazole-6-carboxylic acid] | 100 to 1000 | > 85
Cn1c(CN2CCC(c3cccc(OCc4ccc(OC(F)(F)F)cc4F)n3)CC2)nc2c(OC(F)F)cc(C(=O)O)cc21 [Compound 222] | 100 to 1000 | > 85
CS(=O)(=O)Nc1cc(C(=O)O)cc2c1nc(CN1CCC(c3cccc(OCc4ccc(C#N)cc4F)n3)CC1)n2C[C@@H]1CCO1 [Compound 129, (S)-2-((4-(6-((4-cyano-2-fluorobenzyl)oxy)pyridin-2-yl)piperidin-1-yl)methyl)-4-(methylsulfonamido)-1-(oxetan-2-ylmethyl)-1H-benzo[d]imidazole-6-carboxylic acid] | 10 to 100 | > 85
Cn1c(CN2CCC(c3cccc4c3OC(c3ccc(Cl)cc3F)C=C4)CC2)nc2c(OC(F)F)cc(C(=O)O)cc21 (single isomer, unassigned) [Compound 175] | < 10 | > 85
Cn1c(CN2CCC(Oc3cccc(COc4ccc(Cl)cc4F)n3)CC2)nc2c(OC(F)F)cc(C(=O)O)cc21 [Compound 196, 2-((4-((6-((4-Chloro-2-fluorophenoxy)methyl)pyridin-2-yl)oxy)piperidin-1-yl)methyl)-4-(difluoromethoxy)-1-methyl-1H-benzo[d]imidazole-6-carboxylic acid] | 10 to 100 | > 85
Cn1c(CN2CCC(c3cccc(OCc4ccc(C5CC5)cc4F)n3)CC2)nc2c(OC(F)F)cc(C(=O)O)cc21 [Compound 365, 2-((4-(6-((4-Cyclopropyl-2-fluorobenzyl)oxy)pyridin-2-yl)piperidin-1-yl)methyl)-4-(difluoromethoxy)-1-methyl-1H-benzo[d]imidazole-6-carboxylic acid] | 10 to 100 | > 85
Cn1c(CN2CCC(c3cccc4c3O[C@@H](c3ccc(Cl)cc3F)CC4)CC2)nc2c(OC(F)F)cc(C(=O)O)cc21 [Compound 369, (R)-2-((4-(2-(4-Chloro-2-fluorophenyl)chroman-8-yl)piperidin-1-yl)methyl)-4-(difluoromethoxy)-1-methyl-1H-benzo[d]imidazole-6-carboxylic acid] | > 1000 | < 25
CNC(=O)c1cc(OC)c2nc(CN3CCC(c4cccc(OCc5ccc(Cl)cc5F)n4)CC3)n(C)c2c1 [Compound 280, 2-((4-(6-((4-chloro-2-fluorobenzyl)oxy)pyridin-2-yl)piperidin-1-yl)methyl)-4-methoxy-N, 1-dimethyl-1H-benzo[d]imidazole-6-carboxamide] | > 1000 | 50 to 85
Cn1c(CN2CCC(c3cccc(OCc4ccc(C5COC5)cc4F)n3)CC2)nc2c(OC(F)F)cc(C(=O)O)cc21 [Compound 141, 4-(Difluoromethoxy)-2-((4-(6-((2-fluoro-4-(oxetan-3-yl)benzyl)oxy)pyridin-2-yl)piperidin-1-yl)methyl)-1-methyl-1H-benzo[d]imidazole-6-carboxylic acid] | 10 to 100 | > 85
Cc1ccc(COc2cccc(C3CCN(Cc4nc5c(OC(F)F)cc(C(=O)O)cc5n4C)CC3)n2)c(F)c1 [Compound 238, 4-(Difluoromethoxy)-2-((4-(6-((2-fluoro-4-methylbenzyl)oxy)pyridin-2-yl)piperidin-1-yl)methyl)-1-methyl-1H-benzo[d]imidazole-6-carboxylic acid] | 10 to 100 | > 85
C[C@@H](c1nc2c(OC(F)F)cc(C(=O)O)cc2n1C)N1CCC(c2cccc(OCc3ccc(C#N)cc3F)n2)CC1 [Compound 119, (S)-2-(1-(4-(6-((4-Cyano-2-fluorobenzyl)oxy)pyridin-2-yl)piperidin-1-yl)ethyl)-4-(difluoromethoxy)-1-methyl-1H-benzo[d]imidazole-6-carboxylic acid] | 10 to 100 | 50 to 85
C[C@]1(c2ccc(Cl)cn2)Oc2cccc(C3CCN(Cc4nc5cc(C(=O)O)c6c(c5n4C[C@@H]4CCO4)OCCO6)CC3)c2O1 [Compound 99, 2-((4-((S)-2-(5-Chloropyridin-2-yl)-2-methylbenzo[d][1,3]dioxol-4-yl)piperidin-1-yl)methyl)-1-(((S)-oxetan-2-yl)methyl)-7,8-dihydro-1H-[1,4]dioxino[2′,3′:3,4]benzo[1,2-d]imidazole-5-carboxylic acid] | > 1000 | > 85
Cn1c(CN2CCC(c3nccc(OCc4ccc(Cl)cc4F)n3)CC2)nc2c(OC(F)F)cc(C(=O)O)cc21 [Compound 168, 2-((4-(4-((4-Chloro-2-fluorobenzyl)oxy)pyrimidin-2-yl)piperidin-1-yl)methyl)-4-(difluoromethoxy)-1-methyl-1H-benzo[d]imidazole-6-carboxylic acid] | 10 to 100 | > 85
COc1cc(-c2cc(=O)[nH]o2)cc2c1nc(CN1CCC(c3cccc(OCc4ccc(Cl)cc4F)n3)CC1)n2C[C@@H]1CCO1 [Compound 382, (S)-5-(2-((4-(6-((4-Chloro-2-fluorobenzyl)oxy)pyridin-2-yl)piperidin-1-yl)methyl)-4-methoxy-1-(oxetan-2-ylmethyl)-1H-benzo[d]imidazol-6-yl) isoxazol-3 (2H)-one] | < 10 | 50 to 85

From patent US20240368120A1 (Terns Pharmaceuticals, Inc., priority 2023, published 2024)
